Numbers after ± are expanded uncertainties.

For this data set the following is noted: Liquid, Ebulliometric method (Recirculating still).

What is called vapor or sublimation pressure is the pressure of vapour in equilibrium with the condensed phase. With `Clc1ccccc1` [chlorobenzene], the “vapor or sublimation pressure” value (404.8 K) was determined as 101.33 ± 0.71 kPa.

For `CC(=O)OC(C)(C)C` [1,1-dimethylethyl ethanoate], the “vapor or sublimation pressure” value (371.05 K) turned out to be 101.33 ± 0.71 kPa.

In the case of `CC(C)(C)O` [2-methylpropan-2-ol], the “vapor or sublimation pressure” value (355.59 K) amounted to 101.33 ± 0.71 kPa.

The record behind these values is the NIST ThermoML archive (doi:10.1021/acs.jced.7b01021).
